For experiment [1], the target named is T1, Full length DGKζ (in-house protein M1-V929) (Homo sapiens, UniProt Q13574).
T1 construct: His (N); TEV cleavage site (N); made in house; host or cells: Sf9 insect cells (baculovirus, Bac-to-Bac)
Description: Biochemical DGK IC50 assay (ADP-Glo, lipid micelle substrate), DGKζ. The note with it: 0.5 nM enzyme, 140 μM ATP, 80 μM DAG, 1 hour preincubation, 1 hour reaction, room temperature, read-out: IC50s for DGKζ. An outline of the steps: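 In-house full-length human DGKζ, baculovirus-expressed in Sf9 cells, was assayed with a DAG/PS lipid micelle substrate at room temperature. Buffer was 50 mM HEPES, 10 mM MgCl2, 0.01% BSA, 0.1 mM Na3VO4, 0.005% Tween-20, 0.01 mM CaCl2, with final compound 1.55˜10000 nM or 23.3˜150000 nM.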
A general note: In ADP-Glo the light output rises with the ADP produced.

For experiment [2], the target named is T2, Full length DGKα (D21-10BG, SignalChem) (Homo sapiens, UniProt P23743).
T2 construct: Full length DGKα (D21-10BG, SignalChem); purchased SignalChem D21-10BG
Description: Biochemical DGK IC50 assay (ADP-Glo, lipid micelle substrate), DGKα. The note with it: 7.5 nM enzyme, 140 μM ATP, 80 μM DAG, 1 hour preincubation, 1 hour reaction, room temperature, read-out: IC50s for DGKα. Put shortly: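 Full-length enzyme was assayed by ADP-Glo on DAG/PS lipid micelles at room temperature in HEPES/MgCl2/CaCl2 buffer with BSA, Na3VO4 and Tween-20, using a 1 h reaction and luminescence read-out.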

T1 sequence (Q13574 1-929 isoform Q13574-4): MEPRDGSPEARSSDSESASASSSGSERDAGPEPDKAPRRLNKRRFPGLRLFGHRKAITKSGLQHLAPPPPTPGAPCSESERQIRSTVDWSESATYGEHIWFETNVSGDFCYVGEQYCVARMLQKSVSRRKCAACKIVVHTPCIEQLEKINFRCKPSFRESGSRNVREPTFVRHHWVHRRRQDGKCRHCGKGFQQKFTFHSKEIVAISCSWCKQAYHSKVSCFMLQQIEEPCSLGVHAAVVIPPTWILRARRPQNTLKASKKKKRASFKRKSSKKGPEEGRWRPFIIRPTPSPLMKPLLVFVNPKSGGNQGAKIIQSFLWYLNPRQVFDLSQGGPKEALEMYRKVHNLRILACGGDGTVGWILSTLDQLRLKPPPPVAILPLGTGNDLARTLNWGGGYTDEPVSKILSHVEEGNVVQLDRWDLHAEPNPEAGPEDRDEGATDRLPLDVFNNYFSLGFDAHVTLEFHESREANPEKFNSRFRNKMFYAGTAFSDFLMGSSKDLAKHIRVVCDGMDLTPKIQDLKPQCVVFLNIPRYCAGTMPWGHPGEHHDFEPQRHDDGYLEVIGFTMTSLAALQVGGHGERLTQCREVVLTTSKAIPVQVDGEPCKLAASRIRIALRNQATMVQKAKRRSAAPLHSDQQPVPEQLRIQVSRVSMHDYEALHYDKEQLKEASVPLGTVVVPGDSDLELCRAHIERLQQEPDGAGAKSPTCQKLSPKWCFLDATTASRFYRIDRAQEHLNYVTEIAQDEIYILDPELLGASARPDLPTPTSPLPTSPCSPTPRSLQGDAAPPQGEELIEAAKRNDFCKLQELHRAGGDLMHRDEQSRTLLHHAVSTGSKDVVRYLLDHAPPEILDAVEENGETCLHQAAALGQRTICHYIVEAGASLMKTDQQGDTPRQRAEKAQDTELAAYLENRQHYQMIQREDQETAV
T2 sequence (P23743 whole entry): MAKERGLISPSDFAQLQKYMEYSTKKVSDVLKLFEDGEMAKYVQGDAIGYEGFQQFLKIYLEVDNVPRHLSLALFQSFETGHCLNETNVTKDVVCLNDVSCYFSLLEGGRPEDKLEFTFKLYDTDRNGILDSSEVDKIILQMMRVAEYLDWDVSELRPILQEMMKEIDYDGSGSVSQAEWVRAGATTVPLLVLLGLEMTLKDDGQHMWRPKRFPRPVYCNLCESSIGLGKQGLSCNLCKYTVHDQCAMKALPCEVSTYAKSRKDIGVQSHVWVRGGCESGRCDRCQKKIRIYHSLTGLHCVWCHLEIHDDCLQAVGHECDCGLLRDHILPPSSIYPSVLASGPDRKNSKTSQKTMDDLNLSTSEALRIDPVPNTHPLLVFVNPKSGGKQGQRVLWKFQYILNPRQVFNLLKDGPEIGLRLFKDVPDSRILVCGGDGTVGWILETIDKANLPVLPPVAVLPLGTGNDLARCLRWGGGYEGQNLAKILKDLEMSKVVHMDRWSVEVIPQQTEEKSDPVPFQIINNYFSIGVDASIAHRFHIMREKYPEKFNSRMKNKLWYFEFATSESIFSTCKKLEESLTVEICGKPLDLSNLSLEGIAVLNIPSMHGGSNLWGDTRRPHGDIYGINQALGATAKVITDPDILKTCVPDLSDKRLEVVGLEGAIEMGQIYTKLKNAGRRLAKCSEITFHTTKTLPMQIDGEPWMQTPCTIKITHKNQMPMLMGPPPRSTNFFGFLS

Take `CC[C@H]1CN(C(C)c2ccc3nccnc3c2)[C@H](CC)CN1c1cc(=O)[nH]n2cc(CC#N)nc12` (stereo partly drawn) [Compound A15, 2-(8-((2S,5R)-2,5-diethyl-4-(1-(quinoxalin-6-yl)ethyl)piperazin-1-yl)-6-oxo-5,6-dihydroimidazo[1,2-b]pyridazin-2-yl)acetonitrile]: the IC50 amounted to 3870 nM in experiment [1] and 4380 nM in experiment [2].

In the case of `COc1cnc2ccc(C(C)N3C[C@H](C)N(c4cc(=O)n(C)n5cc(CC#N)nc45)C[C@H]3C)cc2n1` (stereo partly drawn) [Compound A20, 2-(8-((2S,5R)-4-(1-(3-methoxyquinoxalin-6-yl)ethyl)-2,5-dimethylpiperazin-1-yl)-5-methyl-6-oxo-5,6-dihydroimidazo[1,2-b]pyridazin-2-yl)acetonitrile], the IC50 in experiment [1] is 18 nM; in experiment [2] it was 1020 nM.

`CC(c1ccc2ncc(Cl)nc2c1)N1C[C@H](C)N(c2cc(=O)n(C)n3cc(CC#N)nc23)C[C@H]1C` (stereo partly drawn) [Compound A21, 2-(8-((2S,5R)-4-(1-(3-chloroquinoxalin-6-yl)ethyl)-2,5-dimethylpiperazin-1-yl)-5-methyl-6-oxo-5,6-dihydroimidazo[1,2-b]pyridazin-2-yl)acetonitrile]: the IC50 in experiment [1] was found to be 27 nM; in experiment [2] it was 2710 nM.

Consider `Cc1cnc2ccc(C(C)N3C[C@H](C)N(c4c(F)c(=O)n(C)n5cc(CC#N)nc45)C[C@H]3C)cc2n1` (stereo partly drawn) [Compound A22, 2-(8-((2S,5R)-2,5-dimethyl-4-(1-(3-methylquinoxalin-6-yl)ethyl)piperazin-1-yl)-7-fluoro-5-methyl-6-oxo-5,6-dihydroimidazo[1,2-b]pyridazin-2-yl)acetonitrile], for which the IC50 in experiment [1] came to 95 nM; in experiment [2], 10800 nM.

Regarding `Cc1cnc2ccc(C(C)N3C[C@H](C)N(c4c(C#N)c(=O)n(C)n5cc(CC#N)nc45)C[C@H]3C)cc2n1` (stereo partly drawn) [Compound A23, 2-(cyanomethyl)-8-((2S,5R)-2,5-dimethyl-4-(1-(3-methylquinoxalin-6-yl)ethyl)piperazin-1-yl)-5-methyl-6-oxo-5,6-dihydroimidazo[1,2-b]pyridazine-7-carbonitrile], the IC50 came to 39 nM in experiment [1] and 2280 nM in experiment [2].

With `CC(c1ccc2c(c1)OCCO2)N1C[C@H](C)N(c2cc(=O)n(C)n3cc(CC#N)nc23)C[C@H]1C` (stereo partly drawn) [Compound A24, 2-(8-((2S,5R)-4-(1-(2,3-dihydrobenzo[b][1,4]dioxin-6-yl)ethyl)-2,5-dimethylpiperazin-1-yl)-5-methyl-6-oxo-5,6-dihydroimidazo[1,2-b]pyridazin-2-yl)acetonitrile], the IC50 in experiment [1] amounted to 230 nM; in experiment [2], 2870 nM.

With `CC(c1ccc2c(c1)OCO2)N1C[C@H](C)N(c2cc(=O)n(C)n3cc(CC#N)nc23)C[C@H]1C` (stereo partly drawn) [Compound A29, 2-(8-((2S,5R)-4-(1-(benzo[d][1,3]dioxol-5-yl)ethyl)-2,5-dimethylpiperazin-1-yl)-5-methyl-6-oxo-5,6-dihydroimidazo[1,2-b]pyridazin-2-yl)acetonitrile], the IC50 in experiment [1] turned out to be 474 nM; in experiment [2], 296 nM.

As to `CC(c1ccc2c(c1)OC(F)(F)O2)N1C[C@H](C)N(c2cc(=O)n(C)n3cc(CC#N)nc23)C[C@H]1C` (stereo partly drawn) [Compound A31, 2-(8-((2S,5R)-4-(1-(2,2-difluorobenzo[d][1,3]dioxol-5-yl)ethyl)-2,5-dimethylpiperazin-1-yl)-5-methyl-6-oxo-5,6-dihydroimidazo[1,2-b]pyridazin-2-yl)acetonitrile], the figures for the IC50 in experiment [1] and in experiment [2] were 1130 nM and 1970 nM, respectively.

With `CC[C@H]1CN(C(C)c2ccc(F)cc2OC)[C@H](CC)CN1c1cc(=O)n(C)n2cc(CC#N)nc12` (stereo partly drawn) [Compound A32, 2-(8-((2S,5R)-2,5-diethyl-4-(1-(4-fluoro-2-methoxyphenyl)ethyl)piperazin-1-yl)-5-methyl-6-oxo-5,6-dihydroimidazo[1,2-b]pyridazin-2-yl)acetonitrile], the IC50 in experiment [1] is 110 nM; in experiment [2] it was 6420 nM.

For `CC[C@H]1CN(C(C)c2ccc(F)cc2C(F)F)[C@H](CC)CN1c1cc(=O)n(C)n2cc(CC#N)nc12` (stereo partly drawn) [Compound A34, 2-(8-((2S,5R)-4-(1-(2-(difluoromethyl)-4-fluorophenyl)ethyl)-2,5-diethylpiperazin-1-yl)-5-methyl-6-oxo-5,6-dihydroimidazo[1,2-b]pyridazin-2-yl)acetonitrile], the IC50 in experiment [1] was determined as 14 nM; in experiment [2] it was 3510 nM.

`CC[C@H]1CN(C(C)c2ccncc2)[C@H](CC)CN1c1cc(=O)n(C)n2cc(CC#N)nc12` (stereo partly drawn) [Compound A35, 2-(8-((2S,5R)-2,5-diethyl-4-(1-(pyridin-4-yl)ethyl)piperazin-1-yl)-5-methyl-6-oxo-5,6-dihydroimidazo[1,2-b]pyridazin-2-yl)acetonitrile]: the values for the IC50 in experiment [1] and in experiment [2] were 3120 nM and 42 nM, respectively.

Turning to `CC[C@@H]1CN(c2cc(=O)n(C)n3cc(CC#N)nc23)[C@@H](CC)CN1Cc1ccc(OC(F)(F)F)cc1` [Compound A36, 2-(8-((2S,5R)-2,5-diethyl-4-(4-(trifluoromethoxy)benzyl)piperazin-1-yl)-5-methyl-6-oxo-5,6-dihydroimidazo[1,2-b]pyridazin-2-yl)acetonitrile], the IC50 in experiment [1] was 241 nM; in experiment [2], 14 nM.

In the case of `CC[C@H]1CN(C(C)c2ccc(C(C)(C)C#N)nc2)[C@H](CC)CN1c1cc(=O)n(C)n2cc(CC#N)nc12` (stereo partly drawn) [Compound A40, 2-(5-(1-((2R,5S)-4-(2-(cyanomethyl)-5-methyl-6-oxo-5,6-dihydroimidazo[1,2-b]pyridazin-8-yl)-2,5-diethylpiperazin-1-yl)ethyl)pyridin-2-yl)-2-methylpropanenitrile], the IC50 in experiment [1] came out at 124 nM; in experiment [2], 297 nM.

Take `CC[C@H]1CN(C(C)c2ccc(C(C)(C)O)nc2)[C@H](CC)CN1c1cc(=O)n(C)n2cc(CC#N)nc12` (stereo partly drawn) [Compound A41, 2-(8-((2S,5R)-2,5-diethyl-4-(1-(6-(2-hydroxypropan-2-yl)pyridin-3-yl)ethyl)piperazin-1-yl)-5-methyl-6-oxo-5,6-dihydroimidazo[1,2-b]pyridazin-2-yl)acetonitrile]: the IC50 in experiment [1] is 844 nM; in experiment [2], 1270 nM.

Take `CC[C@H]1CN(C(C)c2ccc(OC)cn2)[C@H](CC)CN1c1cc(=O)n(C)n2cc(CC#N)nc12` (stereo partly drawn) [Compound A48, 2-(8-((2S,5R)-2,5-diethyl-4-(1-(5-methoxypyridin-2-yl)ethyl)piperazin-1-yl)-5-methyl-6-oxo-5,6-dihydroimidazo[1,2-b]pyridazin-2-yl)acetonitrile]: the IC50 is 445 nM in experiment [1] and 30 nM in experiment [2].

As to `CC[C@H]1CN(C(C)c2ccc(OC(C)C)cc2)[C@H](CC)CN1c1cc(=O)n(C)n2cc(CC#N)nc12` (stereo partly drawn) [Compound A51, 2-(8-((2S,5R)-2,5-diethyl-4-(1-(4-isopropoxyphenyl)ethyl)piperazin-1-yl)-5-methyl-6-oxo-5,6-dihydroimidazo[1,2-b]pyridazin-2-yl)acetonitrile], the IC50 in experiment [1] was determined as 284 nM; in experiment [2], 90 nM.

`CC[C@H]1CN(C(C)c2ccc(C3CC3)cn2)[C@H](CC)CN1c1cc(=O)n(C)n2cc(CC#N)nc12` (stereo partly drawn) [Compound A52, 2-(8-((2S,5R)-4-(1-(5-cyclopropylpyridin-2-yl)ethyl)-2,5-diethylpiperazin-1-yl)-5-methyl-6-oxo-5,6-dihydroimidazo[1,2-b]pyridazin-2-yl)acetonitrile]: the IC50 is 75 nM in experiment [1] and 18 nM in experiment [2].

For the origin of these results see patent US20240327417A1, “HETEROCYCLIC COMPOUNDS” (BeiGene Switzerland GmbH, priority 2021, published 2024).
